For 2 compounds, Ka results are on record in ChEMBL document CHEMBL5241110, “Medicines for millions of patients” (RSC Med Chem, 2022).

The test system of assay [1] is Pancuronium. Kind of assay: Binding affinity to pancuronium.
Assay [2] deals with Rocuronium. The assay is described as follows: Binding affinity to rocuronium by ITC method.

`CC(=O)O[C@@H]1C[C@H]2CCC3C4C[C@H]([N+]5(C)CCCCC5)[C@H](OC(C)=O)[C@@]4(C)CCC3[C@@]2(C)C[C@@H]1[N+]1(C)CCCCC1` (some centres not stated) came in with a Ka in assay [1] of 167 M⁻¹.

For `O=C(O)CCSC[C@H]1O[C@@H]2O[C@H]3[C@H](O)[C@@H](O)[C@@H](O[C@H]4[C@H](O)[C@@H](O)[C@@H](O[C@H]5[C@H](O)[C@@H](O)[C@@H](O[C@H]6[C@H](O)[C@@H](O)[C@@H](O[C@H]7[C@H](O)[C@@H](O)[C@@H](O[C@H]8[C@H](O)[C@@H](O)[C@@H](O[C@H]9[C@H](O)C(O)[C@@H](O[C@H]1[C@H](O)[C@H]2O)O[C@@H]9CSCCC(=O)O)O[C@@H]8CSCCC(=O)O)O[C@@H]7CSCCC(=O)O)O[C@@H]6CSCCC(=O)O)O[C@@H]5CSCCC(=O)O)O[C@@H]4CSCCC(=O)O)O[C@@H]3CSCCC(=O)O` (some centres not stated), the Ka in assay [2] is 1.05 10^7 M^-1.
